Measured values reported in patent US20030118653A1, “Quick dissolving oral mucosal drug delivery device with moisture barrier coating” (Lavipharm Laboratories Inc., priority 2001, published 2003).

Assay: Bioavailability of sildenafil from film with water soluble inert filler
Assay type: in vivo
Settings: incorporated in a film with water soluble inert filler xylitol
Excerpt: A further parameter affecting the uptake of an active agent or combination of active agents from the quick dissolving oral mucosal drug delivery devices of the present invention is the manner in which the active agent or combination of active agents is dispersed in the delivery device. For example, the active agent or combination of active agents may be dispersed as colloidal particles or be microencapsulated within the delivery device or alternatively may be mixed throughout the delivery device as a reagent during casting. In another example, the active agent can form a solid dispersion with a water soluble inert filler for purposes of increasing the solubility of the active agent when released from the inner layer thereby enhancing bioavailability of the active agent. […] In another example, a bitter active agent can form saliva insoluble complex with water insoluble polymers for the purpose of taste masking.

- bioavailability: enhance the bioavailability
Structure (SMILES): CCCc1nn(C)c2c(=O)[nH]c(-c3cc(S(=O)(=O)N4CCN(C)CC4)ccc3OCC)nc12 [sildenafil]
